Test results as given in PubChem BioAssay AID256 (DTP/NCI, 2004).
Toxic doses and inconclusive results are not listed. How the source made its calls: active means survival T/C of 150% or more; inactive means T/C below 125% in these data.

System: CD2F1 mice, L1210 leukemia ip, survival T/C
Experiment: NCI In Vivo Anticancer Drug Screen. Data for tumor model L1210 Leukemia (intraperitoneal) in CD2F1 (CDF1) mice
Settings: higher = longer survival
In short: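 Activity against a transplanted murine tumor was judged by comparing the compound group with a vehicle group. The outcome in the treated animals was divided by that in the controls.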

[1] = endpoint: mean survival time, dose: 100.0 mg/kg/injection, schedule: Q01DX001 (ip), vehicle: saline with Tween-80
[2] = endpoint: mean survival time, dose: 200.0 mg/kg/injection, schedule: Q01DX001 (ip), vehicle: saline with Tween-80
[3] = endpoint: mean survival time, dose: 400.0 mg/kg/injection, schedule: Q01DX001 (ip), vehicle: saline with Tween-80
[4] = endpoint: mean survival time, dose: 100.0 mg/kg/injection, schedule: Q01DX009 (ip), vehicle: saline with Tween-80
[5] = endpoint: mean survival time, dose: 100.0 mg/kg/injection, schedule: Q04DX003 (ip), vehicle: saline with Tween-80
[6] = endpoint: mean survival time, dose: 200.0 mg/kg/injection, schedule: Q01DX009 (ip), vehicle: saline with Tween-80
[7] = endpoint: mean survival time, dose: 200.0 mg/kg/injection, schedule: Q04DX003 (ip), vehicle: saline with Tween-80
[8] = endpoint: mean survival time, dose: 400.0 mg/kg/injection, schedule: Q01DX009 (ip), vehicle: saline with Tween-80
[9] = endpoint: mean survival time, dose: 400.0 mg/kg/injection, schedule: Q04DX003 (ip), vehicle: saline with Tween-80
[10] = endpoint: mean survival time, dose: 100.0 mg/kg/injection, schedule: Q01DX001 (ip), vehicle: saline
[11] = endpoint: mean survival time, dose: 200.0 mg/kg/injection, schedule: Q01DX001 (ip), vehicle: saline
[12] = endpoint: mean survival time, dose: 400.0 mg/kg/injection, schedule: Q01DX001 (ip), vehicle: saline

Measured: T/C

C(#Cc1ccccc1)c1ccccc1.Cc1ccc([PH+](c2ccccc2)c2ccccc2)cc1.Cc1ccc([PH+](c2ccccc2)c2ccccc2)cc1.[Pt]
inactive: endpoint: median survival time, dose: 3.13 mg/kg/injection, schedule: Q04DX003 (ip), vehicle: distilled water + Tween-80 100 % of control | endpoint: median survival time, dose: 6.25 mg/kg/injection, schedule: Q04DX003 (ip), vehicle: distilled water + Tween-80 101 % of control | endpoint: median survival time, dose: 12.5 mg/kg/injection, schedule: Q04DX003 (ip), vehicle: distilled water + Tween-80 105 % of control | endpoint: median survival time, dose: 25.0 mg/kg/injection, schedule: Q04DX003 (ip), vehicle: distilled water + Tween-80 89 % of control | endpoint: median survival time, dose: 50.0 mg/kg/injection, schedule: Q04DX003 (ip), vehicle: distilled water + Tween-80 90 % of control | endpoint: median survival time, dose: 100.0 mg/kg/injection, schedule: Q04DX003 (ip), vehicle: distilled water + Tween-80 94 % of control

CN(C)/N=C/c1ccc(-c2ccccc2)cc1
inactive: [1] 101 % of control | [2] 103 % of control | [3] 112 % of control

O=C(c1ccc(Cl)cc1)C(O)c1ccc(Cl)cc1 (configuration not stated)
inactive: [4] 93 % of control | [5] 100 % of control | [6] 98 % of control | [7] 96 % of control | [8] 107 % of control | [9] 91 % of control

CCOP(=[Se])(OCC)[Se][Se][Se]P(=[Se])(OCC)OCC
inactive: [10] 108 % of control

CC1/C(=N\Nc2ccc([N+](=O)[O-])cc2[N+](=O)[O-])CCC2C1(C)CCC1C2(C)CCC2(C)C3CC(C)(C)CCC3(C)CCC12C (configuration not stated)
inactive: [10] 97 % of control | [11] 97 % of control | [12] 97 % of control

NC1(CO)COC(c2ccccc2)OC1 (configuration not stated)
inactive: endpoint: mean survival time, dose: 25.0 mg/kg/injection, schedule: Q01DX009 (ip), vehicle: saline 93 % of control | endpoint: mean survival time, dose: 50.0 mg/kg/injection, schedule: Q01DX009 (ip), vehicle: saline 96 % of control | endpoint: mean survival time, dose: 100.0 mg/kg/injection, schedule: Q01DX009 (ip), vehicle: saline 96 % of control

Cn1c(=O)[nH]c2nncnc2c1=O
inactive: endpoint: mean survival time, dose: 2.0 mg/kg/injection, schedule: Q01DX009 (ip), vehicle: water 103 % of control | endpoint: mean survival time, dose: 4.0 mg/kg/injection, schedule: Q01DX009 (ip), vehicle: water 97 % of control | endpoint: mean survival time, dose: 8.0 mg/kg/injection, schedule: Q01DX009 (ip), vehicle: water 97 % of control | endpoint: mean survival time, dose: 16.0 mg/kg/injection, schedule: Q01DX009 (ip), vehicle: water 98 % of control | endpoint: mean survival time, dose: 32.0 mg/kg/injection, schedule: Q01DX009 (ip), vehicle: water 101 % of control | endpoint: mean survival time, dose: 375.0 micrograms/kg/injection, schedule: Q01DX009 (ip), vehicle: saline 100 % of control | endpoint: mean survival time, dose: 750.0 micrograms/kg/injection, schedule: Q01DX009 (ip), vehicle: saline 104 % of control | endpoint: mean survival time, dose: 1500.0 micrograms/kg/injection, schedule: Q01DX009 (ip), vehicle: saline 100 % of control | endpoint: mean survival time, dose: 3000.0 micrograms/kg/injection, schedule: Q01DX009 (ip), vehicle: saline 100 % of control

CCCC[n+]1ccccc1Cc1ccccc1
inactive: endpoint: mean survival time, dose: 25.0 mg/kg/injection, schedule: Q04DX003 (ip), vehicle: saline 101 % of control

OCC(Cl)(Cl)Cl
inactive: [5] 93 % of control | [7] 97 % of control | [9] 101 % of control

N=C1N(c2ccc(C(=O)NC(CCC(=O)O)C(=O)O)cc2)CC2CNc3nc(N)[nH]c(=O)c3N12 (configuration not stated)
inactive: [10] 100 % of control | [11] 93 % of control | [12] 104 % of control

N#CCCOc1ccc(Cl)cc1
inactive: endpoint: mean survival time, dose: 50.0 mg/kg/injection, schedule: Q01DX009 (ip), vehicle: saline with Tween-80 107 % of control | [4] 97 % of control | [6] 96 % of control

Nc1ncnc2c1c1c(=O)[nH]cnc1n2C1OC(CO)C(O)C1O (configuration not stated)
inactive: endpoint: mean survival time, dose: 6.25 mg/kg/injection, schedule: Q01DX005 (ip), vehicle: Klucel (hydroxypropylcellulose) (HPC) 98 % of control | endpoint: mean survival time, dose: 12.5 mg/kg/injection, schedule: Q01DX005 (ip), vehicle: Klucel (hydroxypropylcellulose) (HPC) 104 % of control | endpoint: mean survival time, dose: 25.0 mg/kg/injection, schedule: Q01DX005 (ip), vehicle: Klucel (hydroxypropylcellulose) (HPC) 108 % of control | endpoint: mean survival time, dose: 50.0 mg/kg/injection, schedule: Q01DX005 (ip), vehicle: Klucel (hydroxypropylcellulose) (HPC) 115 % of control | endpoint: mean survival time, dose: 100.0 mg/kg/injection, schedule: Q01DX005 (ip), vehicle: Klucel (hydroxypropylcellulose) (HPC) 120 % of control

Cc1ccc(Cl)c2nc(-c3ccccc3)ccc12
inactive: endpoint: mean survival time, dose: 37.5 mg/kg/injection, schedule: Q01DX009 (ip), vehicle: saline 105 % of control | endpoint: mean survival time, dose: 75.0 mg/kg/injection, schedule: Q01DX009 (ip), vehicle: saline 116 % of control | endpoint: mean survival time, dose: 75.0 mg/kg/injection, schedule: Q04DX003 (ip), vehicle: saline 112 % of control | endpoint: mean survival time, dose: 150.0 mg/kg/injection, schedule: Q01DX009 (ip), vehicle: saline 101 % of control | endpoint: mean survival time, dose: 150.0 mg/kg/injection, schedule: Q04DX003 (ip), vehicle: saline 103 % of control | endpoint: mean survival time, dose: 300.0 mg/kg/injection, schedule: Q04DX003 (ip), vehicle: saline 93 % of control

C=C(C)C1CNC(C(=O)O)C1CC(=O)O (configuration not stated)
inactive: endpoint: mean survival time, dose: 6.25 mg/kg/injection, schedule: Q04DX003 (ip), vehicle: saline sonified 97 % of control | endpoint: mean survival time, dose: 12.5 mg/kg/injection, schedule: Q04DX003 (ip), vehicle: saline sonified 95 % of control | endpoint: mean survival time, dose: 25.0 mg/kg/injection, schedule: Q04DX003 (ip), vehicle: saline sonified 109 % of control

CC1(C)c2c3ccccc3cc3cccc(c23)[S+]1c1ccccc1 (configuration not stated)
inactive: endpoint: mean survival time, dose: 5.0 mg/kg/injection, schedule: Q01DX001 (ip), vehicle: saline with Tween-80 105 % of control | endpoint: mean survival time, dose: 10.0 mg/kg/injection, schedule: Q01DX001 (ip), vehicle: saline with Tween-80 106 % of control | endpoint: mean survival time, dose: 20.0 mg/kg/injection, schedule: Q01DX001 (ip), vehicle: saline with Tween-80 111 % of control

Cc1ccc(S(=O)(=O)Nc2ccccc2OCCOCCOc2ccccc2NS(=O)(=O)c2ccc(C)cc2)cc1
inactive: [1] 103 % of control | [2] 91 % of control | [3] 95 % of control

c1ccc(-n2c3ccccc3c3ccccc32)cc1
inactive: [4] 98 % of control | [6] 98 % of control | [8] 95 % of control

CCCCC1(C(=O)OCC)SCCCS1
inactive: endpoint: mean survival time, dose: 50.0 mg/kg/injection, schedule: Q04DX002 (ip), vehicle: saline with Tween-80 94 % of control | endpoint: mean survival time, dose: 100.0 mg/kg/injection, schedule: Q04DX002 (ip), vehicle: saline with Tween-80 105 % of control | endpoint: mean survival time, dose: 200.0 mg/kg/injection, schedule: Q04DX002 (ip), vehicle: saline with Tween-80 97 % of control
